Measured values as given in US11312724B2 (ASCENTAGE PHARMA (SUZHOU) CO., LTD., priority 2021, dated 2022).

Experiments:
NCI-H358 cell = assay: Cell proliferation assay (Celltiter-Glo), NCI-H358; assay type: cell-based; conditions: Homo sapiens, NCI-H358, 72 h, 3 days
Protocol: (§1) Cell Proliferation Assay:
(§2) NCI-H358 cell and MIA PaCa-2 cell was cultured in RPMI-1640 supplemented with 10% FBS in humidified incubator at 37° C., 5% CO2. To asses the effect of Compounds of the Disclosure on cell proliferation, exponentially growing cells (5000 cells/well) were plated onto 96-well plates. After cell seeding, a representative Compounds of the Disclosure were added to the cell media (in concentrations ranging from 0 to 10 μM, 3/dilution series). After 3 days, 30 μL Celltiter-Glo reagent was added, and the luminescent signal was determined according to supplier's instruction. The dose response curves and IC50 values were generated using Prism.

MIA PaCa-2 cell = assay: Cell proliferation assay (Celltiter-Glo), MIA PaCa-2; assay type: cell-based; conditions: Homo sapiens, MIA PaCa-2, 72 h, 3 days
Protocol: as §1, §2

IC50 (NCI-H358 cell) [nM]	IC50 (MIA PaCa-2 cell) [nM]	SMILES
660	810	C=C(F)C(=O)N1CCN(c2nc(OC[C@@H]3CCCN3C)nc3c2CCC2(COCc4cccc(F)c42)C3)C[C@@H]1CC#N (some centres unmarked)
16	3.6	C=CC(=O)N1CCN(c2nc(OC[C@@H]3CCCN3C)nc3c2CC[C@]2(CCCc4ccccc42)C3)C[C@@H]1CC#N (single isomer, unassigned) [Cpd. No. 1]
440	76	C=CC(=O)N1CCN(c2nc(OC[C@@H]3CCCN3C)nc3c2CC[C@@]2(CCCc4ccccc42)C3)C[C@@H]1CC#N (single isomer, unassigned) [Cpd. No. 2]
13	5	C=CC(=O)N1CCN(c2nc(OCC3CCCN3C)nc3c2CC[C@]2(CCc4ccccc42)C3)C[C@@H]1CC#N (single isomer, unassigned) [Cpd. No. 4]
520	400	C=CC(=O)N1CCN(c2nc(OCC3CCCN3C)nc3c2CC[C@@]2(CCc4ccccc42)C3)C[C@@H]1CC#N (single isomer, unassigned) [Cpd. No. 5]
15	4.9	C=CC(=O)N1CCN(c2nc(OC[C@@H]3[C@@H]4C[C@@H]4CN3C)nc3c2CC[C@@]2(CCc4c(Cl)cccc42)C3)C[C@@H]1CC#N (single isomer, unassigned) [Cpd. No. 47]
6	4.3	C=CC(=O)N1CCN(c2nc(OC[C@@H]3[C@H]4C[C@H]4CN3C)nc3c2CC[C@@]2(CCc4c(Cl)cccc42)C3)C[C@@H]1CC#N (single isomer, unassigned) [Cpd. No. 48]
290	140	C=CC(=O)N1CCN(c2nc(OC[C@@H]3CCCN3C)nc3c2CCC2(CCCc4ccccc42)C3)C[C@H]1CC#N (stereo partly drawn) [Cpd. No. 3, 2-((2R)-1-acryloyl-4-(2′-(((S)-1-methylpyrrolidin-2-yl)methoxy)-3,4,5′,8′-tetrahydro-2H,6′H-spiro[naphthalene-1,7′-quinazolin]-4′-yl)piperazin-2-yl)acetonitrile]
210	170	C=CC(=O)N1CCN(c2nc(OC[C@@H]3CCCN3C)nc3c2CCC2(C3)OCCc3ccccc32)C[C@@H]1CC#N (stereo partly drawn) [Cpd. No. 6, 2-((2S)-1-acryloyl-4-(2′-(((S)-1-methylpyrrolidin-2-yl)methoxy)-5′,8′-dihydro-6′H-spiro[isochromane-1,7′-quinazolin]-4′-yl)piperazin-2-yl)acetonitrile]
1390	850	C=CC(=O)N1CCN(c2nc(OC[C@@H]3CCCN3C)nc3c2CCC2(CCCc4ccccc42)C3)CC1 (stereo partly drawn) [Cpd. No. 7, 1-(4-(2′-(((S)-1-methylpyrrolidin-2-yl)methoxy)-3,4,5′,8′-tetrahydro-2H,6′H-spiro[naphthalene-1,7′-quinazolin]-4′-yl)piperazin-1-yl)prop-2-en-1-one]
940	500	C=CC(=O)N1CCN(c2nc(OC[C@@H]3CCCN3C)nc3c2CCC2(CCCc4ccccc42)C3)[C@@H](C)C1 (stereo partly drawn) [Cpd. No. 8, 1-((3S)-3-methyl-4-(2′-(((S)-1-methylpyrrolidin-2-yl)methoxy)-3,4,5′,8′-tetrahydro-2H,6′H-spiro[naphthalene-1,7′-quinazolin]-4′-yl)piperazin-1-yl)prop-2-en-1-one]
3270	1730	C=CC(=O)N1CCN(c2nc(OC[C@@H]3CCCN3C)nc3c2CCC2(CCc4ccccc42)C3)CC1 (stereo partly drawn) [Cpd. No. 9, 1-(4-(2′-(((S)-1-methylpyrrolidin-2-yl)methoxy)-2,3,5′,8′-tetrahydro-6′H-spiro[indene-1,7′-quinazolin]-4′-yl)piperazin-1-yl)prop-2-en-1-one]
2230	1180	C=CC(=O)N1CCN(c2nc(OC[C@@H]3CCCN3C)nc3c2CCC2(CCc4ccccc42)C3)[C@@H](C)C1 (stereo partly drawn) [Cpd. No. 10, 1-((3S)-3-methyl-4-(2′-(((S)-1-methylpyrrolidin-2-yl)methoxy)-2,3,5′,8′-tetrahydro-6′H-spiro[indene-1,7′-quinazolin]-4′-yl)piperazin-1-yl)prop-2-en-1-one]
